Experimental data published in US20060004197A1, “Sulfonamide-based compounds as protein tyrosine kinase inhibitors” (priority 2004, published 2006).
Like-named read-outs stand apart in the source and are kept apart here.

Columns and labels:
Type in all cases: biochemical
Recombinant human Src = target: T1, Recombinant human Src (Homo sapiens, UniProt P12931); test: Src tyrosine kinase activity, poly E4Y / 32P-ATP phosphorylation assay
T1 construct: made in house; host or cells: baculovirus-insect cell system

Recombinant Csk = Recombinant Csk (Homo sapiens, UniProt P41240); test: Csk tyrosine kinase activity, poly E4Y / 32P-ATP phosphorylation assay
FGF receptor (FGFr) = test: FGFr tyrosine kinase activity, poly E4Y / 32P-ATP phosphorylation assay
[1] = poly E4Y / 32P-ATP, Formula IV compounds
[2] = Table 2, Formula I compounds, NI = no inhibition at 100 μg/mL
[3] = Table 3, Formula II compounds, NI = no inhibition at 100 μg/mL
[4] = Table 3, compound at 15 μg/mL, read-out: % Inhibition at 15 μg/mL Src (%)
[5] = Table 2, compound at 15 ug/mL, read-out: % Inhibition at 15 ug/mL Src (%)
[6] = compound at 15 μg/mL, read-out: % Inhibition at 15 μg/mL Src %

Recombinant Csk, sequence (P41240 whole entry, species assumed): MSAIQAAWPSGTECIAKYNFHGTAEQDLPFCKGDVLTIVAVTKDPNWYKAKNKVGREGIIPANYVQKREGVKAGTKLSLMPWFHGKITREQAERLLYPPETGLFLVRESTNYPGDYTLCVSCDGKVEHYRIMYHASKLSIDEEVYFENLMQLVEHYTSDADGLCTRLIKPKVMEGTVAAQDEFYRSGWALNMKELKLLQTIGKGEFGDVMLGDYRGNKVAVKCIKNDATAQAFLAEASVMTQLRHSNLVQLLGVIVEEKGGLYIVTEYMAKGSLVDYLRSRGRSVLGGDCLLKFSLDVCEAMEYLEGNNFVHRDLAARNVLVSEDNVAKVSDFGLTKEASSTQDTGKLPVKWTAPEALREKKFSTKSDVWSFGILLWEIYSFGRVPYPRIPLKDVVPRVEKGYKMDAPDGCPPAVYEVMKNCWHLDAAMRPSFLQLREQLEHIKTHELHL

## COc1ccc(OCc2ccc(OC)c(NS(=O)(=O)c3ccc(C)cc3)c2)cc1 [Compound 66, N-[2-methoxy-5-(4-methoxy-phenoxymethyl)-phenyl]-4-toluenesulfonamide]
Recombinant human Src; [1]
  IC50: 119 µM
Recombinant Csk; [1]
  IC50: > 242 µM
FGF receptor (FGFr); [1]
  IC50: 162 µM

## N-[4-chloro-2-(4-toluenesulfonylamino)-phenyl]-4-toluenesulfonamide [Compound 6]
Recombinant human Src; [2]
  IC50: 1060 µM
Recombinant Csk; [2]
  IC50: 172 µM
FGF receptor (FGFr); [2]
  IC50: 20.2 µM

## Cc1ccc(S(=O)(=O)Nc2ccc(Sc3ccc(Cl)cc3)c([N+](=O)[O-])c2)cc1 [Compound 69, N-[4-(4-chloro-phenylsulfanyl)-3-nitro-phenyl]-4-toluenesulfonamide]
Recombinant human Src; [1]
  IC50: 1970 µM
Recombinant Csk; [1]
  IC50: 986 µM
FGF receptor (FGFr); [1]
  IC50 (μM) FGFr: NI (NI = no inhibition at 100 μg/mL)

## Cc1ccc(S(=O)(=O)Nc2cc(-c3ccccc3)c([N+](=O)[O-])cc2NS(=O)(=O)c2ccc(C)cc2)cc1 [Compound 8, N-[5-nitro-4-phenyl-2-(4-toluenesulfonylamino)-phenyl]-4-toluenesulfonamide]
Recombinant human Src; [2]
  IC50: 1.7 µM
Recombinant Csk; [2]
  IC50: 10.4 µM
FGF receptor (FGFr); [2]
  IC50: 4.9 µM

## Cc1ccc(Sc2cc(NS(=O)(=O)c3ccc(C)cc3)c(NS(=O)(=O)c3ccc(C)cc3)cc2[N+](=O)[O-])cc1 [Compound 4i, N-[5-nitro-2-(4-toluenesulfonylamino)-4-(p-tolylsulfanyl)-phenyl]-4-toluenesulfonamide]
Recombinant human Src; [2]
  IC50: 1.7 µM
Recombinant Csk; [2]
  IC50: 10.3 µM
FGF receptor (FGFr); [2]
  IC50: 5.1 µM

## COc1ccc(Oc2ccc(NS(=O)(=O)c3cccc4ccccc34)c(NS(=O)(=O)c3cccc4ccccc34)c2)cc1 [Compound 12h, naphthalene-1-sulfonic acid [4-(4-methoxy-phenoxy)-2-(naphthalen-1-yl-sulfonylamino)-phenyl]-amide]
Recombinant human Src; [3]
  IC50: 9 µM
Recombinant Csk; [3]
  IC50: 98 µM
FGF receptor (FGFr); [3]
  IC50: 36 µM

## COc1ccc(Oc2ccc(NS(=O)(=O)c3ccc(OC)c(OC)c3)c(NS(=O)(=O)c3ccc(OC)c(OC)c3)c2)cc1 [Compound 12m, N-[2-(3,4-dimethoxy-benzenesulfonylamino)-4-(4-methoxy-phenoxy)-phenyl]-3,4-dimethoxy-benzenesulfonamide]
Recombinant human Src; [3]
  IC50: 54 µM
Recombinant Csk; [3]
  IC50: > 159 µM
FGF receptor (FGFr); [3]
  IC50 (μM) FGFr: NI (NI = no inhibition at 100 μg/mL)

## COc1ccc(Oc2ccc(NS(=O)(=O)c3c(C)cc(C)cc3C)c(NS(=O)(=O)c3c(C)cc(C)cc3C)c2)cc1 [Compound 12q, N-[4-(4-methoxy-phenoxy)-2-(2,4,6-trimethylbenzenesulfonylamino)-phenyl]-2,4,6-trimethylbenzenesulfonamide]
Recombinant human Src; [3]
  IC50: 39 µM
Recombinant Csk; [3]
  IC50: > 168 µM
FGF receptor (FGFr); [3]
  IC50: 42 µM

## Cc1ccc(S(=O)(=O)Nc2ccc(Oc3ccc(Cl)cc3)cc2NS(=O)(=O)c2ccc(C)cc2)cc1 [Compound 12w, N-[4-(4-chloro-phenoxy)-2-(4-toluenesulfonylamino)-phenyl]-4-toluenesulfonamide]
Recombinant human Src; [3]
  IC50: 5.5 µM
Recombinant Csk; [3]
  IC50: 185 µM
FGF receptor (FGFr); [3]
  IC50: 15.3 µM

## Cc1ccc(S(=O)(=O)Nc2ccc(Cl)cc2NS(=O)(=O)c2ccc(C)cc2)cc1 [Compound 6, N-[4-chloro-2-(4-toluenesulfonylamino)-phenyl]-4-toluenesulfonamide]
Recombinant human Src; [3]
  IC50: > 222 µM
Recombinant Csk; [3]
  IC50: > 222 µM

## Cc1ccc(S(=O)(=O)Nc2ccc(-n3cnc4ccccc43)cc2NS(=O)(=O)c2ccc(C)cc2)cc1 [Compound 17b, N-[4-(benzimidazol-1-yl)-2-(4-toluenesulfonylamino)-phenyl]-4-toluenesulfonamide]
Recombinant human Src; [3]
  IC50: 21 µM
Recombinant Csk; [3]
  IC50: 83 µM

## Cc1ccc(S(=O)(=O)Nc2cc(SCc3ccccc3)c([N+](=O)[O-])cc2NS(=O)(=O)c2ccc(C)cc2)cc1 [Compound 4t, N-[4-benzylsulfanyl-5-nitro-2-(4-toluenesulfonylamino)-phenyl]-4-toluenesulfonamide]
Recombinant human Src; [2]
  IC50: 1.2 µM
Recombinant Csk; [2]
  IC50: 5.5 µM

## COC(=O)c1cc(Oc2ccc(OC)cc2)ccc1NS(=O)(=O)c1ccc(C)cc1 [Compound 67, methyl 5-(4-methoxy-phenoxy)-2-(4-toluenesulfonylamino)-benzoate]
Recombinant human Src; [1]
  IC50: > 234 µM
Recombinant Csk; [1]
  IC50: > 234 µM

## COc1ccc(Oc2ccc(NS(=O)(=O)c3ccc(C)cc3)c(OP(=O)(O)O)c2)cc1 [Compound 43, [5-(4-methoxy-phenoxy)-2-(4-toluenesulfonylamino)-phenyl]-phosphate]
Recombinant human Src; [1]
  IC50: 13 µM
Recombinant Csk; [1]
  IC50: > 215 µM

## COc1ccc(Oc2ccc(NS(=O)(=O)c3ccc([N+](=O)[O-])cc3)c(NS(=O)(=O)c3ccc([N+](=O)[O-])cc3)c2)cc1 [Compound 12r, N-[4-(4-methoxy-phenoxy)-2-(4-nitrobenzenesulfonylamino)-phenyl]-4-nitrobenzenesulfonamide]
Recombinant human Src; [3]
  IC50: 6.6 µM
Recombinant Csk; [3]
  IC50: > 167 µM

## Cc1ccc(S(=O)(=O)Nc2ccc(C(=O)NCC(C)(C)CO)cc2NS(=O)(=O)c2ccc(C)cc2)cc1 [Compound 22f, N-(3-hydroxy-2,2-dimethyl-propyl)-3,4-bis-(4-toluenesulfonylamino)-benzamide]
Recombinant human Src; [4]
  inhibition at 15 µg/mL: 3%

## COc1ccc(Oc2ccc(NS(=O)(=O)c3ccc(C)cc3)c(NS(C)(=O)=O)c2)cc1 [Compound 22m, N-[2-methanesulfonylamino-4-(4-methoxy-phenoxy)-phenyl]-4-toluenesulfonamide]
Recombinant human Src; [4]
  inhibition at 15 µg/mL: 22%

## Cc1ccc(S(=O)(=O)Nc2cc(N3CCSCC3)c([N+](=O)[O-])cc2NS(=O)(=O)c2ccc(C)cc2)cc1 [Compound 9c, N-[5-nitro-4-(thiomorpholin-4-yl)-2-(4-toluenesulfonylamino)-phenyl]-4-toluenesulfonamide]
Recombinant human Src; [5]
  inhibition at 15 µg/mL: 15%

## Cc1ccc(S(=O)(=O)Nc2cc(NCC3CCCCC3)c([N+](=O)[O-])cc2NS(=O)(=O)c2ccc(C)cc2)cc1 [Compound 9h, N-[4-(cyclohexylmethyl-amino)-5-nitro-2-(4-toluenesulfonylamino)-phenyl]-4-toluenesulfonamide]
Recombinant human Src; [5]
  inhibition at 15 µg/mL: 22%

## COc1ccc(Oc2ccc(NC(=O)c3ccc(C)cc3)c(NS(=O)(=O)c3ccc(C)cc3)c2)cc1 [Compound 71r, N-[4-(4-methoxy-phenoxy)-2-(4-toluenesulfonylamino)-phenyl]-4-toluamide]
Recombinant human Src; [1]
  IC50: 159 µM

## Cc1ccc(S(=O)(=O)Nc2cc(NCc3ccccc3Cl)c([N+](=O)[O-])cc2NS(=O)(=O)c2ccc(C)cc2)cc1 [Compound 9g, N-[4-(2-chloro-benzylamino)-5-nitro-2-(4-toluenesulfonylamino)-phenyl]-4-toluenesulfonamide]
Recombinant human Src; [2]
  IC50: 54 µM
Recombinant human Src; [5]
  inhibition at 15 µg/mL: 65%

## COc1ccc(Oc2cc(N)c(NS(=O)(=O)c3ccc(C)cc3)cc2[N+](=O)[O-])cc1 [Compound 71cc, N-[2-amino-4-(4-methoxy-phenoxy)-5-nitro-phenyl]-4-toluenesulfonamide]
Recombinant human Src; [6]
  inhibition at 15 µg/mL: 15%

## COc1ccc(Oc2ccc(NS(=O)(=O)c3ccc(C)cc3)c(NS(=O)(=O)CCc3cccc4ccccc34)c2)cc1 [Compound 22ee, N-[4-(4-methoxy-phenoxy)-2-(2-naphthalen-1-yl-ethanesulfonylamino)-phenyl]-4-toluenesulfonamide]
Recombinant human Src; [3]
  IC50: 50 µM

## COc1ccc(Oc2ccc3c(c2)NS(=O)(=O)N3)cc1 [Compound 72d, 5-(4-methoxy-phenoxy)-1,3-dihydro-benzo[1,2,5]thiadiazole 2,2-dioxide]
Recombinant human Src; Table 6, Formula V compounds, compound at 15 μg/mL, read-out: % Inhibition at 15 μg/mL Src (%)
  inhibition at 15 µg/mL: 12%

## CCCC(=O)Nc1cc(Oc2ccc(OC)cc2)ccc1NS(=O)(=O)c1ccc(C)cc1 [Compound 71z, N-[5-(4-methoxy-phenoxy)-2-(4-toluenesulfonylamino)-phenyl]-butyramide]
Recombinant human Src; [6]
  inhibition at 15 µg/mL: 5%

## COc1ccc(OCc2ccc(C(N)=O)c(NS(=O)(=O)c3ccc(C)cc3)c2)cc1 [Compound 71v, 4-(4-methoxy-phenoxymethyl)-2-(4-toluenesulfonylamino)-benzamide]
Recombinant human Src; [6]
  inhibition at 15 µg/mL: 10%

## COc1ccc(Oc2ccc(NS(=O)(=O)c3ccc(C)cc3)c(NS(=O)(=O)c3ccc(Br)s3)c2)cc1 [Compound 22gg, 5-bromo-N-[5-(4-methoxy-phenoxy)-2-(4-toluenesulfonylamino)-phenyl]-thiophene-2-sulfonamide]
Recombinant human Src; [3]
  IC50: 24 µM

## Cc1ccc(S(=O)(=O)Nc2ccc(NC(=O)Cc3ccccc3)cc2NS(=O)(=O)c2ccc(C)cc2)cc1 [Compound 22h, 2-phenyl-N-[3,4-bis-(4-toluenesulfonylamino)-phenyl]-acetamide]
Recombinant human Src; [3]
  IC50: 47 µM

## COc1ccc(Oc2ccc(NS(=O)(=O)c3ccc(C)cc3)c(NC(=O)NS(=O)(=O)c3ccc(C)cc3)c2)cc1 [Compound 71ii, N-{4-(4-methoxy-phenoxy)-2-[3-(4-toluenesulfonyl)-ureido]-phenyl}-4-toluenesulfonamide]
Recombinant human Src; [6]
  inhibition at 15 µg/mL: 21%

## COc1ccc(Oc2cc(N)c(NS(=O)(=O)c3ccc(C)cc3)cc2C(F)(F)F)cc1 [Compound 71ee, N-[2-amino-4-(4-methoxy-phenoxy)-5-trifluoromethyl-phenyl]-4-toluenesulfonamide]
Recombinant human Src; [6]
  inhibition at 15 µg/mL: 21%

## COc1ccc(Oc2cc(NS(=O)(=O)c3ccc(C)cc3)c(NS(=O)(=O)c3ccc(C)cc3)cc2C)cc1 [Compound 37, N-[4-(4-methoxy-phenoxy)-5-methyl-2-(4-toluenesulfonylamino)-phenyl]-4-toluenesulfonamide]
Recombinant human Src; Table 4, Formula III compounds, NI = no inhibition at 100 μg/mL
  IC50: 118 µM

## COc1ccc(Oc2ccc(NS(=O)(=O)c3ccc(C)cc3)c(NC(=O)c3cnc(C)cn3)c2)cc1 [Compound 71h, N-[5-(4-methoxy-phenoxy)-2-(4-toluenesulfonylamino)-phenyl]-5-methyl-pyrazine-2-carboxamide]
Recombinant human Src; [6]
  inhibition at 15 µg/mL: 0%

## COc1ccc(Oc2ccc(NCc3ccc(C#N)cc3)c(NS(=O)(=O)c3ccc(C)cc3)c2)cc1 [Compound 71d, N-[2-(4-cyano-benzylamino)-5-(4-methoxy-phenoxy)-phenyl]-4-toluenesulfonamide]
Recombinant human Src; [1]
  IC50: 557 µM
